# Patent publication US20200331850A1, “NOVEL SULFONAMIDE CARBOXAMIDE COMPOUNDS” (Inflazome Limited, priority 2017, published 2020)
# Where a name gives a salt, the structure may show the parent alone.
# Biological target: NLRP3 (Homo sapiens, UniProt Q96P20)
# Experiment: Human whole blood IL1β release assay (LPS + nigericin, AlphaLisa IL-1β)
# Type: cell-based
# Set-up: Plate out 80 μl of whole blood containing 1βg/ml of LPS in 96-well, clear bottom cell culture plate; from tissue; host or cells: human whole blood from healthy donors, LPS-primed and nigericin-stimulated
# Details: NLRP3 inhibitory activity in human whole blood, IL-1β release, 10 μM nigericin, read-out: HWB IC50
# Description: For systemic delivery, the ability to inhibit NLRP3 when the compounds are present within the bloodstream is of great importance. For this reason, the NLRP3 inhibitory activity of a number of compounds in human whole blood was investigated in accordance with the following protocol.
# Human whole blood in Li-heparin tubes was obtained from healthy donors from a volunteer donor panel. • 1. Plate out 80 μl of whole blood containing 1βg/ml of LPS in 96-well, clear bottom cell culture plate (Corning #3585) • 2. Add 10 μl compound (8 points half-log dilution with 10 μM top dose) or vehicle (DMSO 0.1% FAC) to the appropriate wells • 3. Incubate for 3 hrs at 37° C., 5% CO2 • 4. Add 10 μl Nigericin (Sigma # N7143) (10 μM FAC) to all wells • 5. Incubate for 1 hr at 37° C., 5% CO2 • 6. At the end of the incubation period, spin plates at 300×g for 5 mins to pellet cells and remove 20 μl of supernatant and add to 96-well v-bottom plates for IL-1β analysis (note: these plates containing the supernatants can be stored at −80° C. to be analysed at a later date) • 7. IL-1β was measured according to the manufacturer protocol (Perkin Elmer-AlphaLisa IL-1 Kit AL220F-5000) • 8. IC50 data is fitted to a non-linear regression equation (log inhibitor vs response-variable slope 4-parameters)
# Sequence of NLRP3 (Q96P20 whole entry): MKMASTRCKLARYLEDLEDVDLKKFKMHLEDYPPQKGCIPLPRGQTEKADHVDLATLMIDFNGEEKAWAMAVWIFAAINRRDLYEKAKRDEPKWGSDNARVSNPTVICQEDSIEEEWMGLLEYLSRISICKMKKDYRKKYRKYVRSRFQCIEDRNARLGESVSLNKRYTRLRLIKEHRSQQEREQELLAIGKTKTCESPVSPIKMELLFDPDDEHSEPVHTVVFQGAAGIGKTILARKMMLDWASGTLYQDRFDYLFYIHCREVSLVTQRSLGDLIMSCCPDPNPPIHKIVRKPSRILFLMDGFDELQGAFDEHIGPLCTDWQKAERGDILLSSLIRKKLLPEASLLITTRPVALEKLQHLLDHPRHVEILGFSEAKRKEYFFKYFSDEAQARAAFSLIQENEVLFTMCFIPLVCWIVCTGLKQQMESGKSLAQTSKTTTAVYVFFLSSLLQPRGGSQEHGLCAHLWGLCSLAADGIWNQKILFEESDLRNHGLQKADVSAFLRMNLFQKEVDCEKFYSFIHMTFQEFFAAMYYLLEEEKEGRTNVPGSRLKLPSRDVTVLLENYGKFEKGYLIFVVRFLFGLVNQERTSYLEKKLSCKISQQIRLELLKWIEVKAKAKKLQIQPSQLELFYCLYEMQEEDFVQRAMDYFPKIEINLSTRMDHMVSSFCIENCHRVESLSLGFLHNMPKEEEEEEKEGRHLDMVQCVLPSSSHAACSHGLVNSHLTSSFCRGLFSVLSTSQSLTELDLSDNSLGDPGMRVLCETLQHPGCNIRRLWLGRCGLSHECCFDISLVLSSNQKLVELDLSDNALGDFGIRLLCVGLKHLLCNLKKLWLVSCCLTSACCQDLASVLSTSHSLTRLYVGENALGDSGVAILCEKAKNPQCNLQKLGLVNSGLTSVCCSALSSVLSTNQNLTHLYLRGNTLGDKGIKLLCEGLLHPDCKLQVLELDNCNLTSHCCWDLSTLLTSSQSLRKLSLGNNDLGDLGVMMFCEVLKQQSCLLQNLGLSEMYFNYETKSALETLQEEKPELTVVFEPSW
row,Compound,IC50
1,"CN(CCCS(=O)(=O)NC(=O)Nc1c2c(cc3c1CCC3)CCC2)Cc1ccccc1 [Example 67, 3-(Benzyl(methyl)amino)-N-((1,2,3,5,6,7-hexahydro-s-indacen-4-yl)carbamoyl)propane-1-sulfonamide, potassium salt]",≤ 10000 nM
2,"CC(C)C(=O)N(C)CCCS(=O)(=O)NC(=O)Nc1c2c(cc3c1CCC3)CCC2 [Example 95, N-(3-(N-((1,2,3,5,6,7-Hexahydro-s-indacen-4-yl)carbamoyl)sulfamoyl)propyl)-N-methylisobutyramide]",≤ 5000 nM
3,"CON(C)CCCS(=O)(=O)NC(=O)Nc1c2c(cc3c1CCC3)CCC2 [Example 70, N-((1,2,3,5,6,7-Hexahydro-s-indacen-4-yl)carbamoyl)-3-(methoxy(methyl)amino)propane-1-sulfonamide, Potassium Salt]",≤ 5000 nM
4,"CCN(CCS(=O)(=O)NC(=O)Nc1c2c(cc3c1CCC3)CCC2)Cc1ccccc1 [Example 11, 2-(Benzyl(ethyl)amino)-N-((1,2,3,5,6,7-hexahydro-s-indacen-4-yl)carbamoyl)ethane-1-sulfonamide, potassium salt]",≤ 7500 nM
5,"CN1CCOC(CS(=O)(=O)NC(=O)Nc2c3c(cc4c2CCC4)CCC3)C1 (centres unmarked) [Example 74, N-((1,2,3,5,6,7-Hexahydro-s-indacen-4-yl)carbamoyl)-1-(4-methylmorpholin-2-yl)methanesulfonamide, Potassium Salt]",≤ 5000 nM
6,"CN1CC2(COC(CS(=O)(=O)NC(=O)Nc3c4c(cc5c3CCC5)CCC4)C2)C1 (centres unmarked) [Example 80, N-((1,2,3,5,6,7-Hexahydro-s-indacen-4-yl)carbamoyl)-1-(2-methyl-6-oxa-2-azaspiro[3.4]octan-7-yl)methanesulfonamide]",≤ 5000 nM
7,"CC(C)C1CCN1CCS(=O)(=O)NC(=O)Nc1c2c(cc3c1CCC3)CCC2 (centres unmarked) [Example 104, N-((1,2,3,5,6,7-Hexahydro-s-indacen-4-yl)carbamoyl)-2-(2-isopropylazetidin-1-yl)ethane-1-sulfonamide]",≤ 1000 nM
8,"COCCCS(=O)(=O)NC(=O)Nc1c2c(cc3c1CCC3)CCC2 [Example 14, N-((1,2,3,5,6,7-Hexahydro-s-indacen-4-yl)carbamoyl)-3-methoxypropane-1-sulfonamide, Potassium Salt]",≤ 5000 nM
9,"O=C(Nc1c2c(cc3c1CCC3)CCC2)NS(=O)(=O)CCCN1CCC1 [Example 72, 3-(Azetidin-1-yl)-N-((1,2,3,5,6,7-hexahydro-s-indacen-4-yl)carbamoyl)propane-1-sulfonamide, Potassium Salt]",≤ 1000 nM
10,"CC(=O)N(C)CCCS(=O)(=O)NC(=O)Nc1c2c(cc3c1CCC3)CCC2 [Example 53, N-(3-(N-((1,2,3,5,6,7-Hexahydro-s-indacen-4-yl)carbamoyl)sulfamoyl)propyl)-N-methylacetamide, Potassium Salt]",≤ 1000 nM
11,"CCN(C)CCCS(=O)(=O)NC(=O)Nc1c2c(cc3c1CCC3)CCC2 [Example 27, 3-(Ethyl(methyl)amino)-N-((1,2,3,5,6,7-hexahydro-s-indacen-4-yl)carbamoyl)propane-1-sulfonamide, potassium salt]",≤ 1000 nM
12,"COC(=O)CCS(=O)(=O)NC(=O)Nc1c2c(cc3c1CCC3)CCC2 [Example 92, Methyl 3-(N-((1,2,3,5,6,7-hexahydro-s-indacen-4-yl)carbamoyl)sulfamoyl)propanoate]",≤ 7500 nM
13,"CCN1CCCC(CS(=O)(=O)NC(=O)Nc2c3c(cc4c2CCC4)CCC3)C1 (centres unmarked) [Example 84, 1-(1-Ethylpiperidin-3-yl)-N-((1,2,3,5,6,7-hexahydro-s-indacen-4-yl)carbamoyl)methanesulfonamide]",≤ 1000 nM
14,"O=C(Nc1c2c(cc3c1CCC3)CCC2)NS(=O)(=O)CCN1CC(F)C1 [Example 90, 2-(3-Fluoroazetidin-1-yl)-N-((1,2,3,5,6,7-hexahydro-s-indacen-4-yl)carbamoyl)ethane-1-sulfonamide]",≤ 5000 nM
15,"CC1(C)C2CC[C@@]1(CS(=O)(=O)NC(=O)Nc1c3c(cc4c1CCC4)CCC3)/C(=N/O)C2 [Example 71, N-((1,2,3,5,6,7-Hexahydro-s-indacen-4-yl)carbamoyl)-1-((1S,E)-2-(hydroxyimino)-7,7-dimethylbicyclo[2.2.1]heptan-1-yl)methane sulfonamide, Potassium Salt]",≤ 10000 nM
16,"CC(CCS(=O)(=O)NC(=O)Nc1c2c(cc3c1CCC3)CCC2)N(C)C (centres unmarked) [Example 78, 3-(Dimethylamino)-N-((1,2,3,5,6,7-hexahydro-s-indacen-4-yl)carbamoyl)butane-1-sulfonamide, potassium salt]",≤ 1000 nM
17,"CCN1CCCC1CS(=O)(=O)NC(=O)Nc1c2c(cc3c1CCC3)CCC2 (centres unmarked) [Example 106, 1-(1-Ethylpyrrolidin-2-yl)-N-((1,2,3,5,6,7-hexahydro-s-indacen-4-yl)carbamoyl)methanesulfonamide]",≤ 1000 nM
18,"CN(C)C(=O)CCS(=O)(=O)NC(=O)Nc1c2c(cc3c1CCC3)CCC2 [Example 97, 3-(N-((1,2,3,5,6,7-Hexahydro-s-indacen-4-yl)carbamoyl)sulfamoyl)-N,N-dimethylpropanamide]",≤ 7500 nM
19,"CC1CCN1CCS(=O)(=O)NC(=O)Nc1c2c(cc3c1CCC3)CCC2 (centres unmarked) [Example 89, N-((1,2,3,5,6,7-Hexahydro-s-indacen-4-yl)carbamoyl)-2-(2-methylazetidin-1-yl)ethane-1-sulfonamide]",≤ 1000 nM

# Results, then the compound that gave them:
row,IC50,Compound
1,≤ 1000 nM,"CC(CS(=O)(=O)NC(=O)Nc1c2c(cc3c1CCC3)CCC2)N1CCC1 (centres unmarked) [Example 91, 2-(Azetidin-1-yl)-N-((1,2,3,5,6,7-hexahydro-s-indacen-4-yl)carbamoyl)propane-1-sulfonamide]"
2,≤ 1000 nM,"COc1cc(-c2ccc3c(c2NC(=O)NS(=O)(=O)CCOC(C)C)CCO3)ccn1 [Example 62, 2-Isopropoxy-N-((5-(2-methoxypyridin-4-yl)-2,3-dihydro-benzofuran-4-yl)carbamoyl)ethanesulfonamide, sodium salt]"
3,≤ 1000 nM,"CCN1CCC(CS(=O)(=O)NC(=O)Nc2c3c(cc4c2CCC4)CCC3)CC1 [Example 1, 1-(1-Ethylpiperidin-4-yl)-N-((1,2,3,5,6,7-hexahydro-s-indacen-4-yl)carbamoyl)methanesulfonamide, potassium salt]"
4,≤ 1000 nM,"CC(C)N1CCCCC1CS(=O)(=O)NC(=O)Nc1c2c(cc3c1CCC3)CCC2 (centres unmarked) [Example 109, N-((1,2,3,5,6,7-Hexahydro-s-indacen-4-yl)carbamoyl)-1-(1-isopropylpiperidin-2-yl)methanesulfonamide]"
5,≤ 1000 nM,"CC(C)N1CCCC(CS(=O)(=O)NC(=O)Nc2c3c(cc4c2CCC4)CCC3)C1 (centres unmarked) [Example 93, N-((1,2,3,5,6,7-Hexahydro-s-indacen-4-yl)carbamoyl)-1-(1-isopropylpiperidin-3-yl)methanesulfonamide]"
6,≤ 1000 nM,"CC(C)N1CCCC1CS(=O)(=O)NC(=O)Nc1c2c(cc3c1CCC3)CCC2 (centres unmarked) [Example 107, N-((1,2,3,5,6,7-Hexahydro-s-indacen-4-yl)carbamoyl)-1-(1-isopropylpyrrolidin-2-yl)methanesulfonamide]"
7,≤ 1000 nM,"O=C(Nc1c2c(cc3c1CCC3)CCC2)NS(=O)(=O)CCN1CCCCC1 [Example 28, N-((1,2,3,5,6,7-Hexahydro-s-indacen-4-yl)carbamoyl)-2-(piperidin-1-yl)ethane-1-sulfonamide, Potassium Salt]"
8,≤ 1000 nM,"CN1CCC(CS(=O)(=O)NC(=O)Nc2c3c(cc4c2CCC4)CCC3)C1 (centres unmarked) [Example 23, N-((1,2,3,5,6,7-Hexahydro-s-indacen-4-yl)carbamoyl)-1-(1-methylpyrrolidin-3-yl)methanesulfonamide, Potassium Salt]"
9,≤ 1000 nM,"CC(CN(C)C)CS(=O)(=O)NC(=O)Nc1c2c(cc3c1CCC3)CCC2 (centres unmarked) [Example 36, 3-(Dimethylamino)-N-((1,2,3,5,6,7-hexahydro-s-indacen-4-yl)carbamoyl)-2-methylpropane-1-sulfonamide, potassium salt]"
10,≤ 1000 nM,"COc1cc(-c2ccc3c(c2NC(=O)NS(=O)(=O)CC2CCN(C)C2)CCC3)ccn1 (centres unmarked) [Example 59, N-((5-(2-Methoxypyridin-4-yl)-2,3-dihydro-1H-inden-4-yl)carbamoyl)-1-(1-methylpyrrolidin-3-yl)methanesulfonamide]"
11,≤ 1000 nM,"CN1CCCC1CS(=O)(=O)NC(=O)Nc1c2c(cc3c1CCC3)CCC2 (centres unmarked) [Example 105, N-((1,2,3,5,6,7-Hexahydro-s-indacen-4-yl)carbamoyl)-1-(1-methylpyrrolidin-2-yl)methanesulfonamide]"
12,≤ 1000 nM,"CCN1CCCCC1CS(=O)(=O)NC(=O)Nc1c2c(cc3c1CCC3)CCC2 (centres unmarked) [Example 110, 1-(1-Ethylpiperidin-2-yl)-N-((1,2,3,5,6,7-hexahydro-s-indacen-4-yl)carbamoyl)methanesulfonamide]"
13,≤ 1000 nM,"COc1cc(-c2cc(F)cc(C(C)C)c2NC(=O)NS(=O)(=O)CC2CCN(C)C2)ccn1 (centres unmarked) [Example 58, N-((4-Fluoro-2-isopropyl-6-(2-methoxypyridin-4-yl)phenyl)carbamoyl)-1-(1-methylpyrrolidin-3-yl)methanesulfonamide]"
